Patent US10377717B2, “Farnesoid X receptor agonists and uses thereof” (Metacrine, Inc., priority 2015, dated 2019)

Each molecule was assayed against hFXR (Homo sapiens (Human), UniProt Q96RI1) (assay: In Vitro FXR Assay (TK), luciferase reporter in transfected CV-1 cells). Conditions: TK-ECRE-luc reporter, hFXR/hRXR, 18 hrs, maximum efficacy <25% of Fexaramine control classified as '+'.
hFXR, sequence (Q96RI1 whole entry): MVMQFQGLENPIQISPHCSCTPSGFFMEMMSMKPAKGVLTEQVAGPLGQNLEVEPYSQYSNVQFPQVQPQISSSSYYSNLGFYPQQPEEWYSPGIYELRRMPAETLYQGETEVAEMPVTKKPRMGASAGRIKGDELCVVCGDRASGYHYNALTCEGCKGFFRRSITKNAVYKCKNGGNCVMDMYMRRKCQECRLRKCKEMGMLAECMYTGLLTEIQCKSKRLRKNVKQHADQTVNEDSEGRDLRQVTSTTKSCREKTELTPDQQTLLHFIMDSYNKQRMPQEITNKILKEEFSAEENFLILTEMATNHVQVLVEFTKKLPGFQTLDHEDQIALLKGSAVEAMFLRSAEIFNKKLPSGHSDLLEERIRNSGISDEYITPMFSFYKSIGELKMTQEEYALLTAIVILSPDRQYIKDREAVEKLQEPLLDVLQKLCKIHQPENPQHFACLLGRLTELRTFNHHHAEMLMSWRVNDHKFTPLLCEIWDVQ
hFXR, sequence (P19793 whole entry partner): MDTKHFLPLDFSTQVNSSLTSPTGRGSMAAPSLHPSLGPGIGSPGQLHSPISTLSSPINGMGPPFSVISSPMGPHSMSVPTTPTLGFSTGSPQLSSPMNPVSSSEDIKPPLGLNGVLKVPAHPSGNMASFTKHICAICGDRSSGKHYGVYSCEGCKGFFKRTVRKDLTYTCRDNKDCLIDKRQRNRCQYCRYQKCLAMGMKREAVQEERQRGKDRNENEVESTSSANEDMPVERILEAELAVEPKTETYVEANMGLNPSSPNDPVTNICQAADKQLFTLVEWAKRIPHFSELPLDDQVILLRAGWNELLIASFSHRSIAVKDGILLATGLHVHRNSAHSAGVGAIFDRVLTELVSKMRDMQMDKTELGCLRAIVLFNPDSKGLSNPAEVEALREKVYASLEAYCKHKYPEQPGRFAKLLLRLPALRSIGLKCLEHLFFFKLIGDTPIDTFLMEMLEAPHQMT
Type: cell-based
Description: CV-1 cells were seeded at a density of 2,000,000 cells in a T175 flask with DMEM+10% charcoal double-stripped FBS and incubated at 37° C. in 5% CO2 for 18 h (O/N).
After 18 h of incubation, the medium in the T175 flask was changed with fresh DMEM+10% charcoal super-stripped serum. In a polypropylene tube, 2500 μL OptiMEM (Life Technologies, Cat #31985-062) was combined with expression plasmids for hFXR, hRXR, TK-ECRE-luc and pCMX-YFP. The tube was then briefly vortexed and incubated at room temperature for 5 minutes. Transfection reagent (X-tremeGENE HP from Roche, Cat #06 366 236 001) was added to the OptiMEM/plasmid mixture vortexed and incubated at room temperature for 20 minutes. Following incubation, the transfection reagent/DNA mixture complex was added to cells in the T175 flask and the cells were incubated at 37° C. in 5% CO2 for 18 h (O/N).
Compounds were serially diluted in DMSO and added to transfected CV-1 cells. The cells were then incubated for 18 hrs. The next day cells were lysed and examined for luminescence.
Molecule `COC(=O)c1ccc2c(N(Cc3ccc(-c4ccc(OC)c(C)c4)cc3)C(=O)CC3CCCCC3)nccc2c1` [Compound 74, Methyl 1-(2-cyclohexyl-N-((4′-methoxy-3′-methyl-[1,1′-biphenyl]-4-yl)methyl)acetamido)isoquinoline-6-carboxylate] has an EC50 of 1000 to 10000 nM.
With `COC(=O)c1ccc2c(N(Cc3ccc(-c4ccc(OC)c(C)c4)cc3)C(=O)c3ccccc3)nccc2c1` [Compound 73, Methyl 1-(N-((4′-methoxy-3′-methyl-[1,1′-biphenyl]-4-yl)methyl)benzamido)isoquinoline-6-carboxylate] the EC50 was ≤ 1000 nM.
With `CCCC(=O)N(Cc1ccc(-c2ccc(OC)c(C)c2)cc1)c1nccc2cc(C(=O)OC)ccc12` [Compound 82, Methyl 1-(N-((4′-methoxy-3′-methyl-[1,1′-biphenyl]-4-yl)methyl)butyramido)isoquinoline-6-carboxylate] the EC50 was ≤ 1000 nM.
In the case of `COC(=O)c1ccc2c(N(Cc3ccc(-c4ccc5c(c4)CCO5)cc3)C(=O)CC(C)(C)C)nccc2c1` [Compound 46, Methyl 1-(N′-(4-(2,3-dihydrobenzofuran-5-yl)benzyl)-3,3-dimethylbutanamido)isoquinoline-6-carboxylate], the EC50 is reported as ≤ 1000 nM.
For `COC(=O)c1ccc2c(N(Cc3ccc(-c4ccc(CCO)cc4)cc3)C(=O)CC(C)(C)C)nccc2c1` [Compound 61, Methyl 1-(N-((4′-(2-hydroxyethyl)-[1,1′-biphenyl]-4-yl)methyl)-3,3-dimethylbutanamido)isoquinoline-6-carboxylate], the EC50 was ≤ 1000 nM.
With `COCCOc1ccc(-c2ccc(CN(C(=O)CC(C)(C)C)c3nccc4cc(C(=O)OC)ccc34)cc2)cc1` [Compound 59, Methyl 1-(N-((4′-(2-methoxyethoxy)-[1,1-biphenyl]-4-yl)methyl)-3,3-dimethylbutanamido)isoquinoline-6-carboxylate] the EC50 was 1000 to 10000 nM.
`COC(=O)c1ccc2c(N(Cc3ccc(-c4ccc(N(C)C)nc4)cc3)C(=O)CC(C)(C)C)nccc2c1` [Compound 38, Methyl 1-(N-(4-(6-(dimethylamino)pyridin-3-yl)benzyl)-3,3-dimethylbutanamido)isoquinoline-6-carboxylate] was tested, and the EC50 was ≤ 1000 nM.
Work on `COC(=O)c1ccc2c(N(Cc3ccc(-c4ccc(N(C)C)cc4)cc3)C(=O)C(C)(C)C)nccc2c1` [Compound 17, Methyl 1-(N-((4-(dimethylamino)-[1,1′-biphenyl]-4-yl)methyl)pivalamido)isoquinoline-6-carboxylate] yielded an EC50 of 1000 to 10000 nM.
In the case of `COC(=O)c1ccc2c(N(C[C@H]3CC[C@H](c4cccc(C)c4)CC3)C(=O)CC(C)(C)C)nccc2c1` [Compound 90, Methyl 1-(3,3-dimethyl-N-((trans-4-(m-tolyl)cyclohexyl)methyl)butanamido)isoquinoline-6-carboxylate], the EC50 is reported as ≤ 1000 nM.
In the case of `COC(=O)c1ccc2c(N(Cc3ccc(-c4ccc(OC)cc4)cc3)C(=O)CC(C)(C)C)nccc2c1` [Compound 45, Methyl 1-(N′-((4′-methoxy-[1,1′-biphenyl]-4-yl)methyl)-3,3-dimethylbutanamido)isoquinoline-6-carboxylate], the EC50 is reported as ≤ 1000 nM.
In the case of `COC(=O)c1ccc2c(N(Cc3ccc(-c4ccc(C)nc4)cc3)C(=O)CC(C)(C)C)nccc2c1` [Compound 39, Methyl 1-(3,3-dimethyl-N-(4-(6-methylpyridin-3-yl)benzyl)butanamido)isoquinoline-6-carboxylate], the EC50 is reported as 1000 to 10000 nM.
`COc1ccc(-c2ccc(CN(C(=O)C3CCCCC3)c3nccc4cc(C(=O)OC(C)C)ccc34)cc2)cc1C` [Compound 22, Isopropyl 1-(N-((4′-methoxy-3′-methyl-[1,1′-biphenyl]-4-yl)methyl)cyclohexanecarboxamido) isoquinoline-6-carboxylate] was tested, and the EC50 was ≤ 1000 nM.
For `COC(=O)/C=C/c1ccnc(N(Cc2ccc(-c3ccc(N(C)C)nc3)cc2)C(=O)C2CCCCC2)c1` [Compound 5, (E)-Methyl 3-(2-(N-(4-(6-(dimethylamino)pyridin-3-yl)benzyl)cyclohexane-carboxamido)pyridin-4-yl)acrylate], the EC50 was 1000 to 10000 nM.
With `COC(=O)c1ccc2c(N(C[C@H]3CC[C@H](c4ccc(OC)cc4)CC3)C(=O)CC(C)(C)C)nccc2c1` [Compound 94, Methyl 1-(N-((trans-4-(4-methoxyphenyl)cyclohexyl)methyl)-3,3-dimethylbutanamido)isoquinoline-6-carboxylate] the EC50 was ≤ 1000 nM.
In the case of `COC(=O)c1ccc2c(N(Cc3ccc(-c4cnc5c(ccn5C)c4)cc3)C(=O)CC(C)(C)C)nccc2c1` [Compound 49, Methyl 1-(3,3-dimethyl-N-(4-(1-methyl-1H-pyrrolo[2,3-b]pyridin-5-yl)benzyl)butanamido)isoquinoline-6-carboxylate], the EC50 is reported as ≤ 1000 nM.
Molecule `COC(=O)c1ccc2c(N(Cc3ccc(-c4ccc5sc(C)nc5c4)cc3)C(=O)CC(C)(C)C)nccc2c1` [Compound 50, Methyl 1-(3,3-dimethyl-N-(4-(2-methylbenzo[d]thiazol-5-yl)benzyl)butanamido)isoquinoline-6-carboxylate] has an EC50 of 1000 to 10000 nM.
With `COC(=O)c1ccc2c(N(Cc3ccc(-c4cnc(OC)c(F)c4)cc3)C(=O)CC(C)(C)C)nccc2c1` [Compound 35, Methyl 1-(N-(4-(5-fluoro-6-methoxypyridin-3-yl)benzyl)-3,3-dimethylbutanamido)isoquinoline-6-carboxylate] the EC50 was ≤ 1000 nM.
Molecule `COC(=O)c1ccc2c(N(C[C@H]3CC[C@H](c4ccccc4C)CC3)C(=O)CC(C)(C)C)nccc2c1` [Compound 89, Methyl 1-(3,3-dimethyl-N-((trans-4-(o-tolyl)cyclohexyl)methyl)butanamido)isoquinoline-6-carboxylate] has an EC50 of 1000 to 10000 nM.
`COc1ccc(-c2ccc(CN(C(=O)CC(C)(C)C)c3nccc4cc(/C=C/C(=O)O)ccc34)cc2)cc1C` [Compound 103, (E)-3-(1-(N-((4′-Methoxy-3′-methyl-[1,1′-biphenyl]-4-yl)methyl)-3,3-dimethylbutanamido)isoquinolin-6-yl)acrylic Acid] gave an EC50 of 1000 to 10000 nM.
For `COC(=O)c1ccc2c(N(Cc3ccc(-c4ccc(OC)c(C)c4)cc3)C(=O)CC(C)(C)C)nccc2c1` [Compound 19, Methyl 1-(N-((4′-methoxy-3′-methyl-[1,1′-biphenyl]-4-yl)methyl)-3,3-dimethylbutanamido)isoquinoline-6-carboxylate], the EC50 was ≤ 1000 nM.
`CCOC(=O)c1cnc2c(N(Cc3ccc(-c4ccc(N(C)C)cc4)cc3)C(=O)C3CCCCC3)cccc2c1` [Compound 14, Ethyl 8-(N-((4′-(dimethylamino)-[1,1′-biphenyl]-4-yl)methyl)cyclohexanecarboxamido) quinoline-3-carboxylate] was tested, and the EC50 was 1000 to 10000 nM.
`COC(=O)c1ccc2c(N(Cc3ccc(-c4ccc(OC)c(C)c4)cc3)C(=O)CC3COC3)nccc2c1` [Compound 83, Methyl 1-(N-((4′-methoxy-3′-methyl-[1,1′-biphenyl]-4-yl)methyl)-2-(oxetan-3-yl)acetamido)isoquinoline-6-carboxylate] gave an EC50 of 1000 to 10000 nM.
For `COC(=O)c1ccc2c(N(Cc3ccc(-c4ccc5c(c4)OC(F)(F)O5)cc3)C(=O)CC(C)(C)C)nccc2c1` [Compound 34, Methyl 1-(N-(4-(2,2-difluorobenzo[d][1,3]dioxol-5-yl)benzyl)-3,3-dimethylbutanamido)isoquinoline-6-carboxylate], the EC50 was ≤ 1000 nM.
Molecule `COC(=O)c1ccc2c(N(Cc3ccc(-c4ccc(OC)c(C)c4)cc3)C(=O)CCc3ccccc3)nccc2c1` [Compound 77, Methyl 1-(N-((4′-methoxy-3′-methyl-[1,1′-biphenyl]-4-yl)methyl)-3-phenylpropanamido)isoquinoline-6-carboxylate] has an EC50 of 1000 to 10000 nM.
In the case of `COc1ccc([C@H]2CC[C@H](CN(C(=O)CC(C)(C)C)c3nccc4cc(C(=O)O)ccc34)CC2)cc1C` [Compound 100, 1-(N-((trans-4-(4-Methoxy-3-methylphenyl)cyclohexyl)methyl)-3,3-dimethylbutanamido)isoquinoline-6-carboxylic Acid], the EC50 is reported as 1000 to 10000 nM.
In the case of `CCOC(=O)c1ccc2c(N(Cc3ccc(-c4ccc(OC)c(C)c4)cc3)C(=O)C3CCCCC3)nccc2c1` [Compound 21, Ethyl 1-(N-((4′-methoxy-3′-methyl-[1,1′-biphenyl]-4-yl)methyl)cyclohexanecarboxamido) isoquinoline-6-carboxylate], the EC50 is reported as ≤ 1000 nM.
`COC(=O)c1ccc2c(N(Cc3ccc(-c4ccc(F)c(OC)c4)cc3)C(=O)CC(C)(C)C)nccc2c1` [Compound 54, Methyl 1-(N-((4′-fluoro-3′-methoxy-[1,1′-biphenyl]-4-yl)methyl)-3,3-dimethylbutanamido)isoquinoline-6-carboxylate] was tested, and the EC50 was 1000 to 10000 nM.
`COC(=O)c1ccc2c(N(Cc3ccc(-c4ccc(CO)cc4)cc3)C(=O)CC(C)(C)C)nccc2c1` [Compound 43, Methyl 1-(N-((4′-(hydroxymethyl)-[1,1′-biphenyl]-4-yl)methyl)-3,3-dimethylbutanamido)isoquinoline-6-carboxylate] gave an EC50 of 1000 to 10000 nM.
In the case of `COC(=O)c1ccc2ccc(N(Cc3ccc(-c4ccc(N(C)C)cc4)cc3)C(=O)C3CCCCC3)cc2c1` [Compound 15, Methyl 7-(N-((4′-(dimethylamino)-[1,1′-biphenyl]-4-yl)methyl)cyclohexanecarboxamido)-2-naphthoate], the EC50 is reported as ≥ 10000 nM.
`COC(=O)c1ccc2c(N(Cc3ccc(-c4ccc(C)c(Cl)c4)cc3)C(=O)CC(C)(C)C)nccc2c1` [Compound 55, Methyl 1-(N-((3′-chloro-4′-methyl-[1,1′-biphenyl]-4-yl)methyl)-3,3-dimethylbutanamido)isoquinoline-6-carboxylate] was tested, and the EC50 was ≤ 1000 nM.
